Where “and” joins values, the source holds several entries; their conditions need not be identical. Equal entries are not always repeated.
Columns and labels:
[1] = molecular target: 5-hydroxytryptamine receptor 7 (Mus musculus, UniProt P32304)
[2] = molecular target: 5-hydroxytryptamine receptor 5A (Mus musculus, UniProt P30966)
[3] = molecular target: 5-hydroxytryptamine receptor 1B (Homo sapiens, UniProt P28222)
[4] = molecular target: 5-hydroxytryptamine receptor 1D (Homo sapiens, UniProt P28221)
Chain of 5-hydroxytryptamine receptor 1D (Homo sapiens, UniProt P28221) (P28221 whole entry): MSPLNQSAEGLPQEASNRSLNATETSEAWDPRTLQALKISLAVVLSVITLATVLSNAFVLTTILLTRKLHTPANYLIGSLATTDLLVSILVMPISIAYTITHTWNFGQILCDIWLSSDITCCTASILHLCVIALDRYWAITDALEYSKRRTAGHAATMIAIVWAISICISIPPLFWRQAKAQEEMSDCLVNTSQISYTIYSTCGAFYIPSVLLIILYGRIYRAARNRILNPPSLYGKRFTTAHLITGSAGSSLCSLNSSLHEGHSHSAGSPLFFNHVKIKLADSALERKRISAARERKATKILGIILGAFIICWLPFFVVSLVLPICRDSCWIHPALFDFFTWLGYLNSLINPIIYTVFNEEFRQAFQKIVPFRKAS

[5] = molecular target: 5-hydroxytryptamine receptor 1B (Rattus norvegicus, UniProt P28564)
Chain of 5-hydroxytryptamine receptor 1B (Rattus norvegicus, UniProt P28564) (P28564 whole entry): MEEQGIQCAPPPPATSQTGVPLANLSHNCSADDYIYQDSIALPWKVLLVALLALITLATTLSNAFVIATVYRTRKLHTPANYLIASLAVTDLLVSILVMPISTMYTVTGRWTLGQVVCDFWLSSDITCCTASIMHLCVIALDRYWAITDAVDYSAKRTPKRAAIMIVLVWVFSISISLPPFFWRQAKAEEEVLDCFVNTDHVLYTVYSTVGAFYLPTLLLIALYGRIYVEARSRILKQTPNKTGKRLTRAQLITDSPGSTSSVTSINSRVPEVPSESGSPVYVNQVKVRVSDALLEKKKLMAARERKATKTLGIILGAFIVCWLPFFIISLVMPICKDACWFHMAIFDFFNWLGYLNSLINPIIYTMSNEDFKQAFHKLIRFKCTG

[6] = molecular target: T1, 5-hydroxytryptamine receptor 1F (Homo sapiens, UniProt P30939)
T1 sequence (P30939 whole entry): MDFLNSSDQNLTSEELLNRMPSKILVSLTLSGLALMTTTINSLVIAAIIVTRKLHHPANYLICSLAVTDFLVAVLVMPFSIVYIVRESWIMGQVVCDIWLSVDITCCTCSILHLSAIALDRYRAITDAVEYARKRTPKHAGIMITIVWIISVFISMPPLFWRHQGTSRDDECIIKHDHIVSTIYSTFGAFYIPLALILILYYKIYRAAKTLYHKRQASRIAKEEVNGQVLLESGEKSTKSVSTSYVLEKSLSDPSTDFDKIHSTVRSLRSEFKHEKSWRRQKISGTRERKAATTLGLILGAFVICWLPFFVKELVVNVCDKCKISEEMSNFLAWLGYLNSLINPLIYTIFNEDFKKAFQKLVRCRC

[7] = molecular target: T2, 5-hydroxytryptamine receptor 3A (Mus musculus, UniProt P23979)
T2 sequence (P23979 whole entry): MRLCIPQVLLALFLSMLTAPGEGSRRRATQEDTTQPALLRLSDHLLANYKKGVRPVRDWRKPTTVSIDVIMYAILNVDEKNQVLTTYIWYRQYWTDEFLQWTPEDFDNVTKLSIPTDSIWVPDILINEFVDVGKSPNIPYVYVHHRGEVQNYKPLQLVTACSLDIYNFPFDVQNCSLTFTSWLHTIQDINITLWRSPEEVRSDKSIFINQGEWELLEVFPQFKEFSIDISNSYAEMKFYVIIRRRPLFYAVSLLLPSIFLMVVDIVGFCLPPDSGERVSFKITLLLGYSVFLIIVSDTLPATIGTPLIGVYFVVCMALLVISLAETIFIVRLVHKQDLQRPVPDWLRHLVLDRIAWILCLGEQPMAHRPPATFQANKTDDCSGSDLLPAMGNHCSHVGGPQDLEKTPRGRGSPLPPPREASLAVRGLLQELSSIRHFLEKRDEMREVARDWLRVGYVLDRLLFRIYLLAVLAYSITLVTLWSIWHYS

[8] = molecular target: 5-hydroxytryptamine receptor 2B (Mus musculus, UniProt Q02152)
Chain of 5-hydroxytryptamine receptor 2B (Mus musculus, UniProt Q02152) (Q02152 whole entry): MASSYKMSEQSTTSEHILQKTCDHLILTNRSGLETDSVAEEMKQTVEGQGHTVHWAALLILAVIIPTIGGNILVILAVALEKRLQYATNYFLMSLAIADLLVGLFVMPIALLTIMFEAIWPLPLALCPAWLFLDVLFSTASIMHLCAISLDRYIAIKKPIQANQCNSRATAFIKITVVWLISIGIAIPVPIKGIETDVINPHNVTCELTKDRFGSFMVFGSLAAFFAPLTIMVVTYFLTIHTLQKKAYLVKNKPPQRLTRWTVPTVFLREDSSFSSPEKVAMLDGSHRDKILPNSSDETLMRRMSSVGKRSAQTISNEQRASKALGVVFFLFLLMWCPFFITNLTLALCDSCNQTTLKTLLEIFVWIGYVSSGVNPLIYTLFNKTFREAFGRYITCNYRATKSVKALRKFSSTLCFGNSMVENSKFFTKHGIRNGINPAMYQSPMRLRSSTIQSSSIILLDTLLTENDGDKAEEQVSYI

[9] = molecular target: 5-hydroxytryptamine receptor 2B (Rattus norvegicus, UniProt P30994)
Chain of 5-hydroxytryptamine receptor 2B (Rattus norvegicus, UniProt P30994) (P30994 whole entry): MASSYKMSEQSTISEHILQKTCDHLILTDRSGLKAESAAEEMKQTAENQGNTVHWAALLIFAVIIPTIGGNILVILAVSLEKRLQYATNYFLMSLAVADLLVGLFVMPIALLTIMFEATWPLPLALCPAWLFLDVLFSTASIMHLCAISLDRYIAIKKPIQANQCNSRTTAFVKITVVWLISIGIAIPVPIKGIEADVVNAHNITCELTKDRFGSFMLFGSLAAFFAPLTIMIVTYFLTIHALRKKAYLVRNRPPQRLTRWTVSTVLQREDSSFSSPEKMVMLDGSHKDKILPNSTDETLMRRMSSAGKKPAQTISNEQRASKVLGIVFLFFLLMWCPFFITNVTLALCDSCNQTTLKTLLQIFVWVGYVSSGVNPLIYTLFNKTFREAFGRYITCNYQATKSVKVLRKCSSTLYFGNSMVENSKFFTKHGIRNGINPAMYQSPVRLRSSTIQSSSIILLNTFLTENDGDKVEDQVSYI

[10] = molecular target: 5-hydroxytryptamine receptor 1D (Canis lupus familiaris, UniProt P11614)
Chain of 5-hydroxytryptamine receptor 1D (Canis lupus familiaris, UniProt P11614) (P11614 whole entry): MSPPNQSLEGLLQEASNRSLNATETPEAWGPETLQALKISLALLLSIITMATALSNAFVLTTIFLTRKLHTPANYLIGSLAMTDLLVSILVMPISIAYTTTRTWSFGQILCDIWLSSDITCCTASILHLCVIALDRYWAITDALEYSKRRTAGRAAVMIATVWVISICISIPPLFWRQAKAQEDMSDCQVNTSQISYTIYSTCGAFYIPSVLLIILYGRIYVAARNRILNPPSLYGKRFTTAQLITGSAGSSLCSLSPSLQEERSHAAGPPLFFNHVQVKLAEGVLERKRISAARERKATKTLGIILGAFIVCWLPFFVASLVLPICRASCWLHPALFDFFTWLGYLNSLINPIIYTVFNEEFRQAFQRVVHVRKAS

[11] = molecular target: T3, 5-hydroxytryptamine receptor 1F (Mus musculus, UniProt Q02284)
T3 sequence (Q02284 whole entry): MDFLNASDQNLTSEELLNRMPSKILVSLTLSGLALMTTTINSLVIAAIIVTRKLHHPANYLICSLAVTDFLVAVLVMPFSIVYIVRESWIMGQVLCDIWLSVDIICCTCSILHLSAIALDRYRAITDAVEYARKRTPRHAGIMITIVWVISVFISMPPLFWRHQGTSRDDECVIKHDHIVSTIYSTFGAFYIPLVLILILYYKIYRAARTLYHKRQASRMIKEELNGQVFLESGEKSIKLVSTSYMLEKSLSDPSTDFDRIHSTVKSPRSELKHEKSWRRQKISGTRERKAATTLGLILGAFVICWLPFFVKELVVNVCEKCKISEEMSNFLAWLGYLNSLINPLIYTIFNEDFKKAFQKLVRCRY

[12] = molecular target: 5-hydroxytryptamine receptor 1B (Mus musculus, UniProt P28334)
Chain of 5-hydroxytryptamine receptor 1B (Mus musculus, UniProt P28334) (P28334 whole entry): as the sequence (P28564 whole entry) above, with T15A, A23T, D33G, D152E, V192M, V270A, E272D, T385A counted along it

[13] = molecular target: 5-hydroxytryptamine receptor 1D (Rattus norvegicus, UniProt P28565)
Chain of 5-hydroxytryptamine receptor 1D (Rattus norvegicus, UniProt P28565) (P28565 whole entry): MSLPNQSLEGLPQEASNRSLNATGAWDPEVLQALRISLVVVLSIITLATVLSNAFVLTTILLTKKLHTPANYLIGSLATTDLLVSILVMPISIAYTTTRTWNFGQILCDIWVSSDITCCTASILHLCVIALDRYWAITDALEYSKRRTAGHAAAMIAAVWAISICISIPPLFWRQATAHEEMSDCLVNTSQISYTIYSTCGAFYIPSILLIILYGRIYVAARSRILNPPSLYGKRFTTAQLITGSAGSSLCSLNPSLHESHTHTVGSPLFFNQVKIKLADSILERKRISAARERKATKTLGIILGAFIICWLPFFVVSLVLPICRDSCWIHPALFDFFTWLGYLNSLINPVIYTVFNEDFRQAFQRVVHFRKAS

[14] = molecular target: 5-hydroxytryptamine receptor 1E (Homo sapiens, UniProt P28566)
Chain of 5-hydroxytryptamine receptor 1E (P28566 whole entry): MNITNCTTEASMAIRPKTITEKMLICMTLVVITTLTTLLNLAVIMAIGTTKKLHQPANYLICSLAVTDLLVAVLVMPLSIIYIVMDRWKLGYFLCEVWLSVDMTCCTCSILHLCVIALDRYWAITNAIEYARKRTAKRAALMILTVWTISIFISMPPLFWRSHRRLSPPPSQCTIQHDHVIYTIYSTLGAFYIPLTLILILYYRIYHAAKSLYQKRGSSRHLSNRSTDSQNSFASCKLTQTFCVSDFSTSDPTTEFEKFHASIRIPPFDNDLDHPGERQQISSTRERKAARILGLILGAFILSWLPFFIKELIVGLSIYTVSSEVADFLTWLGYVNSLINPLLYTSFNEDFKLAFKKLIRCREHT

[15] = molecular target: T4, 5-hydroxytryptamine receptor 1F (Rattus norvegicus, UniProt P30940)
T4 sequence (P30940 whole entry): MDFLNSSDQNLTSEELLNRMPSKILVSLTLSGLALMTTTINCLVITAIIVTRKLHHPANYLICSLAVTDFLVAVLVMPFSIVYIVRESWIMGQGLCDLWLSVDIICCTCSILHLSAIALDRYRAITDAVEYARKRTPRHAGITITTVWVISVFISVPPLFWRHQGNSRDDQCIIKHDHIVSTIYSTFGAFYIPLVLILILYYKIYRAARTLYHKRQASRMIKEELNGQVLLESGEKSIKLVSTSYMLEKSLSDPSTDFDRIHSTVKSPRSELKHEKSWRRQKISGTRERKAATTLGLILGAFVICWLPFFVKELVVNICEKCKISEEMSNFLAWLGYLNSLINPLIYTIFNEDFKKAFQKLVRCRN

Chain of 5-hydroxytryptamine receptor 7 (P32304 whole entry): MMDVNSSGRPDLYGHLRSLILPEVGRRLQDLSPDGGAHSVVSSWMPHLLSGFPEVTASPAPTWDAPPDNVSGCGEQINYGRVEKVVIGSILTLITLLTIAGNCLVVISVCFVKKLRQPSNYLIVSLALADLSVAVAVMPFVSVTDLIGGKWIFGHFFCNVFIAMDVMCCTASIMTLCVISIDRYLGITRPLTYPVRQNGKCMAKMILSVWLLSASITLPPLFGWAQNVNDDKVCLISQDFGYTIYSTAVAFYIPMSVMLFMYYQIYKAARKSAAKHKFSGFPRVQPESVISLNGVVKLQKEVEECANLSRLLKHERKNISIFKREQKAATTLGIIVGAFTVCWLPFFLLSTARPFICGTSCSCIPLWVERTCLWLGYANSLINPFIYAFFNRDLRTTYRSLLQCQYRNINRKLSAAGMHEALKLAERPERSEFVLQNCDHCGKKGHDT
Chain of 5-hydroxytryptamine receptor 5A (P30966 whole entry): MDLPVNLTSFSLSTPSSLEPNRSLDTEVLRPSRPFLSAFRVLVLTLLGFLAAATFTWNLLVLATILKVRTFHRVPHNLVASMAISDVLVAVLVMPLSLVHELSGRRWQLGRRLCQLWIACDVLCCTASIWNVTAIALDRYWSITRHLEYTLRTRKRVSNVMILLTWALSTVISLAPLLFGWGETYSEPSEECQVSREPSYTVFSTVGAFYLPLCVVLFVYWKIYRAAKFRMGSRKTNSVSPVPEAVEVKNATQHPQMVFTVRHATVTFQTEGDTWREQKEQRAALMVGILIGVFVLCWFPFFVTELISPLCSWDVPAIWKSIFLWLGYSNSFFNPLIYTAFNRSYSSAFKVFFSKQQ
Chain of 5-hydroxytryptamine receptor 1B (Homo sapiens, UniProt P28222) (P28222 whole entry): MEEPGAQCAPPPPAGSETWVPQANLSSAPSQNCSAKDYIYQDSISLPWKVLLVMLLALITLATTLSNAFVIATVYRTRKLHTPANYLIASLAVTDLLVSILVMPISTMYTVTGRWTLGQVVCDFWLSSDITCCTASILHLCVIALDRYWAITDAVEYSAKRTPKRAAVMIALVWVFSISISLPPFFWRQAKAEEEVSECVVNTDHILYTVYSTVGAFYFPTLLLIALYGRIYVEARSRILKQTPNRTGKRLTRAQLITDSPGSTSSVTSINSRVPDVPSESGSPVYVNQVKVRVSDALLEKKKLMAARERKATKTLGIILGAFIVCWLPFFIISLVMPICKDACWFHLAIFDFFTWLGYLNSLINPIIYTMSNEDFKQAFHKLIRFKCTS

Compound `CCCN(CCC)C1CCc2cccc(O)c2C1` (stereo not given) has a Ki [1] of 251 nM and a Ki [2] of 1580 nM.

With `c1ccc2c(N3CCNCC3)cccc2c1` the Ki [3] was 12 nM, the Ki [4] was 7.41 nM and the Ki [5] was 39.8 nM. For the same compound, the Ki [6] was 53.7 nM.

With `CN1C2CCC1CC(OC(=O)c1c[nH]c3ccccc13)C2` (stereo not given) the Ki [7] was 1.99 nM.

`CC(C)(C)[C@]1(O)CCN2C[C@H]3c4ccccc4CCc4cccc(c43)[C@@H]2C1` gave a Ki [1] of 31.6 nM and a Ki [6] of 3890 nM.

In the case of `Cc1[nH]c2ccc(O)cc2c1CCN`, the Ki [3] is reported as 851 nM and 513 nM, the Ki [8] is reported as 6610 nM and the Ki [9] is reported as 316 nM.

For `NCCc1c[nH]c2ccc(Br)cc12`, the Ki [9] was 38.9 nM.

`NCCc1c[nH]c2ccccc12` [1H-indole-3-ethanamine] was tested, and the Ki [8] was 200 nM and the Ki [9] was 200 nM.

Work on `COc1ccc2[nH]cc(CCN(C)C)c2c1` [3-(2-DIMETHYLAMINOETHYL)-5-METHOXYINDOLE] yielded a Ki [10] of 5.12 nM.

Compound `CN(C)CCc1c[nH]c2ccc(O)cc12` [3-[2-(dimethylamino)ethyl]indol-5-ol] has a Ki [11] of 31.6 nM.

With `Cn1cc(CCN)c2cc(O)ccc21` [5-HT,omega-N-Me] the Ki [9] was 10.5 nM.

With `COc1ccc2[nH]cc(C3=CCNCC3)c2c1` [5-Methoxy-3-(1,2,3,6-tetrahydro-pyridin-4-yl)-1H-indole(RU-24969)] the Ki [5] was 1.58 nM and 2.57 nM and 0.36 nM, the Ki [12] was 10 nM and the Ki [10] was 63.1 nM. It also gave a Ki [13] of 46.8 nM and a Ki [11] of 158 nM.

`CN1CC(C(=O)N[C@]2(C)O[C@@]3(O)C4CCCN4C(=O)[C@H](Cc4ccccc4)N3C2=O)CC2c3cccc4[nH]cc(c34)CC21` (stereo partly drawn) [7-Methyl-4,6,6a,7,8,9,10,10a-octahydro-indolo[4,3-fg]quinoline-9-carboxylic acid ((2R,5S,10bS)-5-benzyl-10b-hydroxy-2-methyl-3,6-dioxo-octahydro-oxazolo[3,2-a]pyrrolo[2,1-c]pyrazin-2-yl)-amide] gave a Ki [13] of 0.06 nM and a Ki [9] of 145 nM.

In the case of `O=C(CCCN1CCC2(CC1)C(=O)NCN2c1ccccc1)c1ccc(F)cc1` [8-[4-(4-fluorophenyl)-4-oxidanylidene-butyl]-1-phenyl-1,3,8-triazaspiro[4.5]decan-4-one], the Ki [8] is reported as 50.1 nM, the Ki [1] is reported as 63.1 nM and the Ki [10] is reported as 1000 nM. The Ki [13] was 61.6 nM and the Ki [6] was 3.98 nM.

Compound `CCN(CC)C(=O)[C@@H]1C=C2c3cccc4[nH]cc(c34)C[C@H]2N(C)C1` [(4R,7R)-N,N-diethyl-6-methyl-6,11-diazatetracyclo[7.6.1.0^{2,7}.0^{12,16}]hexadeca-1(16),2,9,12,14-pentaene-4-carboxamide] has a Ki [10] of 12.6 nM.

`CC(C)C[C@H]1C(=O)N2CCC[C@H]2[C@]2(O)O[C@](NC(=O)[C@@H]3C=C4c5cccc6[nH]c(Br)c(c56)C[C@H]4N(C)C3)(C(C)C)C(=O)N12` [Bromocriptine+ (GTP+)] was tested, and the Ki [1] was 126 nM.

`CCC(=O)c1ccc(N)cc1` [CAS_6270] gave a Ki [10] of 34.7 nM.

`CN1CCN(c2nc3cc(C(F)(F)F)ccc3n3cccc23)CC1` [CAS_109028-10-6] was tested, and the Ki [13] was 4.89 nM.

For `CC(C)NCC(O)COc1cccc2[nH]ccc12` (stereo not given) [LB-46], the Ki [12] was 63.1 nM.

`CCN(CC)C(=O)[C@@H]1C=C2c3cccc4[nH]c(Br)c(c34)C[C@H]2N(C)C1` [LSD,2-Bromo] gave a Ki [1] of 10 nM and a Ki [9] of 12.6 nM.

`CN1C2CCC1CC(OC(=O)c1cc(Cl)cc(Cl)c1)C2` (stereo not given) [MDL 72222] gave a Ki [7] of 87.1 nM.

In the case of `CN1C[C@@H](NS(=O)(=O)N(C)C)C[C@@H]2c3cccc4c3c(cn4C)C[C@H]21` [MESULERGINE], the Ki [3] is reported as 1290 nM and 631 nM and the Ki [1] is reported as 25.1 nM.

`CN1C[C@H](CNC(=O)OCc2ccccc2)C[C@@H]2c3cccc4c3c(cn4C)C[C@H]21` [METERGOLINE] was tested, and the Ki [3] was 5.24 nM and 36.3 nM, the Ki [4] was 0.6 nM and the Ki [14] was 1120 nM and 776 nM. It also gave a Ki [1] of 31.6 nM, a Ki [13] of 0.77 nM and a Ki [15] of 513 nM.

With `CN1CCN2c3ccccc3Cc3ccccc3[C@H]2C1` [MIANSERIN (+)] the Ki [1] was 100 nM, the Ki [13] was 30.2 nM and the Ki [6] was 12.6 nM. The Ki [11] was 100 nM.

`CCCN(CCC)CCc1c[nH]c2ccc(C(N)=O)cc12` [NN-DIPROP-5-CT] gave a Ki [3] of 41.7 nM and a Ki [4] of 12.9 nM.

In the case of `CN1CCC(=C2c3ccccc3CCc3sccc32)CC1` [NSC_27400], the Ki [9] is reported as 38.9 nM.

In the case of `CC(C)n1cc2c3c(cccc31)C1CC(C(=O)NC3CCCCC3)CN(C)C1C2` (stereo not given) [NSC_60740], the Ki [9] is reported as 10.7 nM.

In the case of `CC(C)(C)NCC(O)COc1cccc2[nH]c(C#N)cc12` (stereo not given) [NSC_155346], the Ki [3] is reported as 21.4 nM, the Ki [5] is reported as 0.26 nM and the Ki [12] is reported as 2.51 nM. It also gave a Ki [13] of 36.3 nM.

Compound `CN1CCc2cc(Cl)c(O)cc2[C@@H](c2ccccc2)C1` [SCH 23390,R(+)] has a Ki [9] of 83.2 nM.

In the case of `Cc1cc(C(C)(C)C)c(O)c(C)c1CC1=NCCN1` [SMR000059324], the Ki [5] is reported as 2.51 nM and 0.81 nM and the Ki [13] is reported as 1.28 nM.

`CNS(=O)(=O)Cc1ccc2[nH]cc(CCN(C)C)c2c1` [Sumax] was tested, and the Ki [14] was 2340 nM and 2090 nM, the Ki [11] was 79.4 nM and the Ki [2] was over 10000 nM.

With `FC(F)(F)c1cccc(N2CCNCC2)c1` [TFMPP] the Ki [13] was 58.9 nM, the Ki [11] was 794 nM and the Ki [9] was 85.1 nM.

`COc1cc2c3cc1Oc1cc(ccc1O)C[C@@H]1c4c(cc(OC)c(O)c4Oc4ccc(cc4)C[C@@H]3N(C)CC2)CC[N+]1(C)C` [Tubocurarine,d] showed a Ki [7] of 8.7 nM.

`CN(C)CCCN1c2ccccc2Sc2ccc(Cl)cc21` [[3-(2-Chloro-phenothiazin-10-yl)-propyl]-dimethyl-amine(Chlorpromazine)] showed a Ki [1] of 5010 nM.

`COc1cc(CC(C)N)c(OC)cc1I` (stereo not given) [[125I]2,5-dimethoxy-4-iodoamphetamine] gave a Ki [6] of 2510 nM and a Ki [9] of 27.5 nM.

With `Clc1cccc(N2CCNCC2)c1` [mCPP] the Ki [3] was 363 nM and 501 nM and the Ki [9] was 26.9 nM.

`CSc1ccc2c(c1)C(N1CCN(C)CC1)Cc1ccccc1S2` (stereo not given) [methanesulfonic acid;1-methyl-4-(3-methylsulfanyl-5,6-dihydrobenzo[b][1]benzothiepin-5-yl)piperazine] was tested, and the Ki [14] was 209 nM and 120 nM, the Ki [5] was 12.9 nM and 10.5 nM and the Ki [13] was 0.58 nM. It also gave a Ki [15] of 1000 nM and a Ki [2] of 126 nM.

In the case of `COC(=O)[C@@H]1[C@H]2C[C@H]3c4[nH]c5ccccc5c4CCN3C[C@@H]2CC[C@@H]1O` [yohimbic acid methyl ester], the Ki [4] is reported as 15.8 nM and 47.9 nM, the Ki [12] is reported as over 10000 nM and the Ki [10] is reported as 5.24 nM. For the same compound, the Ki [13] was 30.9 nM, the Ki [11] was 63.1 nM and the Ki [15] was 562 nM. The Ki [9] was 58.9 nM and 35.5 nM and 107 nM and 53.7 nM.
